{"source": "patent US20040143021A1", "about": "“Compositions and methods for improving recovery after general anesthesia” (priority 2003, published 2004)", "key": {"[1]": {"system": "patients with excessive daytime sleepiness associated with narcolepsy", "settings": "clinical trials, 200 mg/d and 400 mg/d; cited from earlier work"}, "sleep-deprived pilots": {"system": "sleep-deprived pilots", "settings": "in vivo; cited from earlier work"}, "[2]": {"system": "patients scheduled for same day surgery under general anesthesia", "assay": "Randomized, double blind, parallel group clinical study of modafinil vs placebo on recovery after general anesthesia (symptom evaluation by verbal analog scale)", "format": "in vivo", "settings": "for Appetite, verbal analog score, mean (SD) / Ease of sleep, verbal analog score, mean (SD) / Energy, verbal analog score, mean (SD) / Exhaustion, verbal analog score, mean (SD) / Fatigue, verbal analog score, mean (SD) / Nausea, verbal analog score, mean (SD) / Reading ability, verbal analog score, mean (SD) / Restless, verbal analog score, mean (SD) / Tense, verbal analog score, mean (SD) / Worn out, verbal analog score, mean (SD): VAS 0 to 10; for Operative distress, point value: total of 60 possible points", "text": "Informed consents were obtained from patients scheduled to undergo outpatient surgical procedures under general anesthesia to participate in this prospective study approved by an institutional review board. In this study, the clinical activity of modafinil to improve recovery post-anesthesia was examined in a randomized, double blind, parallel group study. Thirty-four (34) patients scheduled for same day surgery under general anesthesia participated in this prospective study. Patients were American Society of Anesthesiology physical status I-II, with a Body-Mass-Index <40 without any known significant renal, hepatic, cardiovascular, neurological, gastrointestinal, endocrine, hematologic, or pulmonary diseases as judged by the investigator. A history of epilepsy, alcoholism, or chronic use of opioids also excluded the patients from participation in this study. Patients were asked to rate various symptoms they had experienced over the previous 24-hour period using a verbal analog scale (VAS) rating of 0 to 10, as well as discrete scores when indicated. The symptom evaluation included headache, dizziness, level of energy, appetite, nausea, pain, vomiting, degree of being tense, clear-headedness, restlessness, fatigue, exhaustion, quality of sleep during the previous night, need for the help from a caregiver, the ability to read, comprehend, and communicate.\nAnesthetic management of the patients was at the discretion of the attending anesthesiologist. Patients were monitored post-operatively, and cared for according to institutional standards. Once the patient was able to tolerate oral intake of liquids, the study drug (modafinil, 200 mg) or placebo was administered, randomly, with a sip of water. Patients were discharged according to institutional standards. Patients were contacted 24 (+1) hours after dosing for symptom evaluation and the same questions were asked. Patients were also asked whether the study drug they received had any beneficial effect. If the patient felt they received a benefit from the study drug they were asked to describe the benefit in their own words.\nThe study group included 24 female and 10 male patients (n=17 per group). The demographics of the groups are shown below in Table 1. There were no significant differences in age, height, weight, or gender distribution between the two groups.\nAlmost all patients had received the same type of anesthetic management including propofol, a narcotic, a volatile agent, a muscle relaxant, nitrous oxide, and oxygen. Patients had undergone mostly orthopedic or gynecological surgical procedures. Surgical procedures or the exact doses of anesthetics were not compared between the groups.\nThere were no significant differences in preoperative symptoms reported between the two groups (modafinil versus placebo; Table 2). As expected, patients were tenser, more restless, and less relaxed pre-operatively (in both groups). […] Operative distress was defined as a lack of energy, presence of feeling worn out, fatigue, exhaustion, mental clouding, and problem reading (comprehending) (total of 60 possible points to define the most severe Operative distress). In the modafinil group, the point value for operative distress was 10.5±6.0, preoperatively, increasing to 11.3±9.1, postoperatively. The corresponding values for operative distress in the placebo group were 13.4±11.9, pre-operatively, and 21.0±13.8, post-operatively."}, "[3]": {"settings": "post-operative minus pre-operative, modafinil 200 mg"}, "[4]": {"settings": "post-operative, 24 h after modafinil 200 mg oral, n = 17"}, "[5]": {"settings": "pre-operative (before dosing), n = 17"}, "[6]": {"settings": "share of patients, modafinil 200 mg, n = 17"}}, "data": [{"smiles": "NC(=O)C[S+]([O-])C(c1ccccc1)c1ccccc1", "note": "(stereo not drawn) [Modafinil]", "values": [{"measurement": "Daytime wakefulness", "setting": "[1]", "value": "significantly improve daytime wakefulness"}, {"measurement": "Effect on nighttime sleep", "setting": "[1]", "value": "without affecting nighttime sleep"}, {"measurement": "Fatigue and confusion in sleep-deprived pilots", "setting": "sleep-deprived pilots", "value": "reduce fatigue and confusion"}, {"measurement": "Patients expressing themes of \"alertness\" and \"energy\" as benefit of study drug", "setting": "[2]; content analysis of comments, modafinil group, p<0.05 vs 18% placebo", "value": 71, "unit": "%"}, {"measurement": "Exhaustion postoperatively compared with placebo", "setting": "[2]; modafinil 200 mg vs placebo", "value": "significantly less exhausted"}, {"measurement": "Fatigue postoperatively compared with placebo", "setting": "[2]; modafinil 200 mg vs placebo", "value": "significantly less fatigue"}, {"measurement": "Feeling worn out postoperatively compared with placebo", "setting": "[2]; modafinil 200 mg vs placebo", "value": "significantly less worn out"}, {"measurement": "Feelings of alertness and energy in patients recovering from general anesthesia", "setting": "[2]; modafinil 200 mg vs placebo", "value": "significantly improved feelings of alertness, and energy"}, {"measurement": "Post-operative distress compared with placebo", "setting": "[2]; modafinil 200 mg vs placebo", "value": "significantly less post-operative distress"}, {"measurement": "Patients complaining of not being able to fall asleep at night", "setting": "[2]; modafinil group (n = 17), four in placebo group", "value": "one"}, {"measurement": "Patients complaining of moderate-to-severe fatigue", "setting": "[2]; modafinil treatment group vs 65% placebo", "value": 12, "unit": "%"}, {"measurement": "Appetite, verbal analog score, difference", "setting": "[2]; [3]", "value": "−1.8"}, {"measurement": "Ease of sleep, verbal analog score, difference", "setting": "[2]; [3]", "value": "−0.3"}, {"measurement": "Energy, verbal analog score, difference", "setting": "[2]; [3]", "value": "−1.3"}, {"measurement": "Exhaustion, verbal analog score, difference", "setting": "[2]; [3]", "value": 0.2}, {"measurement": "Fatigue, verbal analog score, difference", "setting": "[2]; [3]", "value": "−0.2"}, {"measurement": "Nausea, verbal analog score, difference", "setting": "[2]; [3]", "value": 1.3}, {"measurement": "Reading ability, verbal analog score, difference", "setting": "[2]; [3]", "value": 0.2}, {"measurement": "Restless, verbal analog score, difference", "setting": "[2]; [3]", "value": "−2.0"}, {"measurement": "Tense, verbal analog score, difference", "setting": "[2]; [3]", "value": "−3.2"}, {"measurement": "Worn out, verbal analog score, difference", "setting": "[2]; [3]", "value": "−0.6"}, {"measurement": "Appetite, verbal analog score, mean (SD)", "setting": "[2]; [4]", "value": "6.1 (3.8)"}, {"measurement": "Ease of sleep, verbal analog score, mean (SD)", "setting": "[2]; [4]", "value": "6.2 (3.6)"}, {"measurement": "Energy, verbal analog score, mean (SD)", "setting": "[2]; [4]", "value": "6.2 (3.5)"}, {"measurement": "Exhaustion, verbal analog score, mean (SD)", "setting": "[2]; [4]", "value": "2.4 (3.1)"}, {"measurement": "Fatigue, verbal analog score, mean (SD)", "setting": "[2]; [4]", "value": "1.4 (1.8)"}, {"measurement": "Nausea, verbal analog score, mean (SD)", "setting": "[2]; [4]", "value": "1.9 (3.5)"}, {"measurement": "Reading ability, verbal analog score, mean (SD)", "setting": "[2]; [4]", "value": "9.2 (1.6)"}, {"measurement": "Restless, verbal analog score, mean (SD)", "setting": "[2]; [4]", "value": "2.5 (3.0)"}, {"measurement": "Tense, verbal analog score, mean (SD)", "setting": "[2]; [4]", "value": "2.2 (3.2)"}, {"measurement": "Worn out, verbal analog score, mean (SD)", "setting": "[2]; [4]", "value": "2.9 (2.4)"}, {"measurement": "Mental limitation to resume activity, verbal analog score, mean (SD)", "setting": "[2]; [4]", "value": "0.6 (1.6)"}, {"measurement": "Operative distress, point value", "setting": "[2]; postoperatively, modafinil 200 mg", "value": "11.3±9.1"}, {"measurement": "Appetite, verbal analog score, mean (SD)", "setting": "[2]; [5]", "value": "7.9 (2.9)"}, {"measurement": "Ease of sleep, verbal analog score, mean (SD)", "setting": "[2]; [5]", "value": "6.5 (3.3)"}, {"measurement": "Energy, verbal analog score, mean (SD)", "setting": "[2]; [5]", "value": "7.5 (2.8)"}, {"measurement": "Exhaustion, verbal analog score, mean (SD)", "setting": "[2]; [5]", "value": "2.2 (3.3)"}, {"measurement": "Fatigue, verbal analog score, mean (SD)", "setting": "[2]; [5]", "value": "1.6 (2.7)"}, {"measurement": "Nausea, verbal analog score, mean (SD)", "setting": "[2]; [5]", "value": "0.6 (2.4)"}, {"measurement": "Reading ability, verbal analog score, mean (SD)", "setting": "[2]; [5]", "value": "9.0 (2.1)"}, {"measurement": "Restless, verbal analog score, mean (SD)", "setting": "[2]; [5]", "value": "4.5 (3.7)"}, {"measurement": "Tense, verbal analog score, mean (SD)", "setting": "[2]; [5]", "value": "5.4 (3.6)"}, {"measurement": "Worn out, verbal analog score, mean (SD)", "setting": "[2]; [5]", "value": "3.5 (3.4)"}, {"measurement": "Operative distress, point value", "setting": "[2]; preoperatively, modafinil group", "value": "10.5±6.0"}, {"measurement": "Fatigue, % with rating > 3", "setting": "[2]; [6]", "value": 18, "unit": "%"}, {"measurement": "Fatigue, % with rating ≧ 5", "setting": "[2]; [6]", "value": 12, "unit": "%"}, {"measurement": "Worn out, % with rating > 3", "setting": "[2]; [6]", "value": 41, "unit": "%"}, {"measurement": "Worn out, % with rating ≧ 5", "setting": "[2]; [6]", "value": 29, "unit": "%"}]}]}
